Measurements as given in patent US20120116069A1, “GLUCOSE METABOLISM-IMPROVING AGENT AND GLUCOSE METABOLISM-IMPROVING COMPOSITION” (LION CORPORATION, priority 2009, published 2012).

Legend:
[1] = test system: model mice of hyperglycemia (KKAy mice); assay: Blood sugar level of model mice of hyperglycemia bred five days on PT- or PD-containing high fat diet; type: in vivo, mouse; details: for Blood sugar level (post-breeding): after five days; for Blood sugar level (initial value): before breeding
From the text: Panaxatriol (PT) (product of LKT Laboratories, Inc.) was mixed with a commercially available high fat diet (trade name: Quick Fat, product of CLEA Japan, Inc.) in amounts shown in the following Table 1. Each of the thus-prepared feeds was given ad libitum to model mice of hyperglycemia (KKAy mice (product of CLEA Japan, Inc.), eight weeks old, 5 mice/group) to breed them for five days (hereinafter these groups may be referred to as “PT-containing group”). Mice of a control group were given a panaxatriol (PT)-free feed (hereinafter this group may be referred to as “PT-free group”). The blood sugar level was measured at 10 a.m. before breeding of the panaxatriol (PT)-containing high fat diet (initial value) and after breeding thereof (post-breeding). […] GB SENSOR (product of Sanko Junyaku Co., Ltd.) was used for the measurement of the blood sugar level. The values shown in the following Table 1 are calculated on the basis of the average value of two values obtained by measuring each individual twice for the postprandial blood sugar level. […] Panaxadiol (PD) (product of LKT Laboratories, Inc.) was mixed with a commercially available high fat diet (trade name: Quick Fat, product of CLEA Japan, Inc.) in amounts shown in the following Table 2. Each of the thus-prepared feeds was given ad libitum to model mice of hyperglycemia (KKAy mice (product of CLEA Japan, Inc.), eight weeks old, 5 mice/group) to breed them for five days (hereinafter these groups may be referred to as “PD-containing group”). Mice of a control group were given a panaxadiol (PD)-free feed (hereinafter this group may be referred to as “PD-free group”). The blood sugar level was measured at 10 a.m. before breeding of the panaxadiol (PD)-containing high fat diet (initial value) and after breeding thereof (post-breeding). […] GB SENSOR (product of Sanko Junyaku Co., Ltd.) was used for the measurement of the blood sugar level. The values shown in the following Table 2 are calculated on the basis of the average value of two values obtained by measuring each individual twice for the postprandial blood sugar level.

[2] = test system: model mice of hyperglycemia (KKAy mouse); assay: Blood sugar level of KKAy mice after one-week main breeding on high fat diet containing PT or PD; type: in vivo; details: 0.1% by mass in high fat diet (control group 335.4 mg/dL)
Experimental: Twenty-four model mice of hyperglycemia (KKAy mouse (product of CLEA Japan, Inc.), male, four weeks old) were preliminarily bred for one week in individual cages under the following conditions: temperature: room temperature (22° C.±1° C.), humidity: 50%±5%, and light-dark cycle: 12 hours. Eight grams per day of CE-2 (product of CLEA Japan, Inc.) was given to each mouse as feed during the preliminary breeding, while water was given ad libitum. After completion of the preliminary breeding, the mice were measured for body weight and blood sugar level. Then, they were divided into three groups, each containing eight mice, so that the body weights and blood sugar levels were averaged in the three groups, followed by main breeding in a manner described below. […] GB SENSOR (product of Sanko Junyaku Co., Ltd.) using the whole blood sampled from the tale vein of the mouse. The mice of one group were subjected to main breeding for one week under the conditions that eight grams per day of a commercially available high fat diet (trade name: Quick Fat, product of CLEA Japan, Inc.) was given to each mouse while water was given ad libitum. […] Hereinafter, this group may be referred to as “PD-administered group.” After the one-week main breeding, the mice were measured for blood sugar level and body weight, and then were subjected to measurement of the amount of ^13CO2 excreted.

[3] = test system: model mice of hyperglycemia (KKAy mouse); assay: Amount of 13CO2 excreted in exhaled gas after oral glucose-U-13C6; type: in vivo; details: 0.1% by mass in high fat diet for one week, four hours after oral glucose-U-13C6, versus control group
Experimental: Twenty-four model mice of hyperglycemia (KKAy mouse (product of CLEA Japan, Inc.), male, four weeks old) were preliminarily bred for one week in individual cages under the following conditions: temperature: room temperature (22° C.±1° C.), humidity: 50%±5%, and light-dark cycle: 12 hours. Eight grams per day of CE-2 (product of CLEA Japan, Inc.) was given to each mouse as feed during the preliminary breeding, while water was given ad libitum. […] Thereafter, an aqueous solution of glucose and glucose-U-^13C6 was orally administered to each mouse at a concentration calculated from the following: [2.0 g D-glucose (product of NACALAI TESQUE, INC.)+72 mg D-glucose-U-^13C6 (99%) (product of Cambridge Isotope Lab.)/kg-body weight]. Then, the cumulative amount of ^13CO2 excreted was measured for four hours. The cumulative amount of ^13CO2 excreted is expressed as AUC (increment in the amount of ^13CO2 excreted). Here, the AUC (increment in the amount of ^13CO2 excreted) refers to an area corresponding to the increment between the amount of ^13CO2^3 excreted prior to administration of glucose-U-^13C6 (baseline) to the amount of ^13CO2 excreted measured four hours after administration of glucose-U-^13C6 in a graph where a change in the amount of ^13CO2 excreted is plotted against time after administration of glucose-U-^13C6.

[4] = 0.0001% by mass in high fat diet ad libitum
[5] = 0.001% by mass in high fat diet ad libitum
[6] = 0.01% by mass in high fat diet ad libitum
[7] = group 0.0001% by mass in high fat diet
[8] = group 0.001% by mass in high fat diet
[9] = group 0.01% by mass in high fat diet

| Structure (SMILES) | Blood sugar level (post-breeding) [1, 4] [mg/dL] | Blood sugar level (post-breeding) [1, 5] [mg/dL] | Blood sugar level (post-breeding) [1, 6] [mg/dL] | Blood sugar level (initial value) [1, 7] [mg/dL] | Blood sugar level (initial value) [1, 8] [mg/dL] | Blood sugar level (initial value) [1, 9] [mg/dL] | blood sugar level [2] [mg/dL] | amount of 13CO2 excreted [3] |
| --- | --- | --- | --- | --- | --- | --- | --- | --- |
| CC1(C)CCC[C@](C)([C@H]2CC[C@]3(C)[C@@H]2[C@H](O)C[C@@H]2[C@@]4(C)CC[C@H](O)C(C)(C)[C@@H]4CC[C@]23C)O1 [PD, panaxadiol] | 404 ± 17 | 323 ± 56 | 274 ± 34 | 454 ± 38 | 451 ± 34 | 454 ± 32 | 231.6 | significantly increased |
| CC1(C)CCC[C@](C)([C@H]2CC[C@]3(C)[C@@H]2[C@H](O)C[C@@H]2[C@@]4(C)CC[C@H](O)C(C)(C)[C@@H]4[C@@H](O)C[C@]23C)O1 [PT, panaxatriol] | 401 ± 15 | 318 ± 58 | 265 ± 39 | 455 ± 39 | 451 ± 34 | 451 ± 38 | 199.3 | significantly increased |
